From PubChem BioAssay AID608 (Sanford-Burnham Center for Chemical Genomics, 2007)
Calls of active or inactive are those of the source. How the calls were made is not given here.

These compounds were tested against Peptidyl-prolyl cis-trans isomerase FKBP1A (Homo sapiens) (UniProt P62942) (assay: FKBP12 binders, biophysical, NMR detection (AID 608)). Settings: NMR binding, purified FKBP12.
Chain of Peptidyl-prolyl cis-trans isomerase FKBP1A (Homo sapiens) (P62942 whole entry, looked up): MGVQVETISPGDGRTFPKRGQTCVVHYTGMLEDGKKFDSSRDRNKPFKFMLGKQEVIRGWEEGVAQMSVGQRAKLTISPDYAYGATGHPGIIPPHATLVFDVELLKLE

| SMILES | Kd |
| --- | --- |
| Nc1ccccc1C(=O)CC(N)C(=O)O (stereo not drawn) | > 4 mM (inactive) |
| CC(=O)Nc1cccc(N2C(=O)CCC2=O)c1 | > 4 mM (inactive) |
| Cc1n[nH]c(C)c1CN | > 4 mM (inactive) |
| NC(=O)Cc1nc(-c2ccccc2)cs1 | > 4 mM (inactive) |
| Cc1ccc(C)c(C(=O)NCc2ccncc2)c1 | > 4 mM (inactive) |
| CC(=O)NN1C(=O)c2cccc3cccc(c23)C1=O | > 4 mM (inactive) |
| CCC(/C=C/[C@@H](C)[C@H]1CCC2C3CC=C4C[C@@H](O)CC[C@]4(C)C3CC[C@@]21C)C(C)C (stereo partly drawn) | > 4 mM (inactive) |
| NC(=O)c1ccc(N2C(=O)C=CC2=O)cc1Cl | > 4 mM (inactive) |
| Cc1ccccc1NC(=O)C1CCC(=O)N1 (stereo not drawn) | > 4 mM (inactive) |
| O=C(Nc1ccc(Cl)cc1)N1CCCC1 | inactive |
| O=C(NC1CCS(=O)(=O)C1)C1CCCCC1 (stereo not drawn) | > 4 mM (inactive) |
| O=C(COc1ccc(F)cc1)N1CCOCC1 | inactive |
| Cc1nnc(NCCO)[nH]c1=O | > 4 mM (inactive) |
| COC(=O)c1scc(C)c1N | > 4 mM (inactive) |
| CC(C)c1ccc(SC(F)(F)C(=O)N2CCOCC2)cc1 | 0.0028 mM |
| Cc1n[nH]c(=S)n1-c1ccc(C(=O)O)cc1 | > 4 mM (inactive) |
| CC(C)(C)P(=O)(O)c1ccccc1 | > 4 mM (inactive) |
| COc1ccc(-c2nnsc2N)cc1 | > 4 mM (inactive) |
| NC(=O)NC1C=CS(=O)(=O)C1 (stereo not drawn) | > 4 mM (inactive) |
| O[C@H]1C=C2CCN3Cc4cc5c(cc4C(C23)[C@@H]1O)OCO5 (stereo partly drawn) | > 4 mM (inactive) |
| CC(=O)O[C@H]1CC[C@]2(C)C3CC[C@@]4(C)C(CC5O[C@@]6(CCC(C)CO6)[C@@H](C)C54)C3CC[C@@H]2C1 (stereo partly drawn) | > 4 mM (inactive) |

| SMILES | Kd |
| --- | --- |
| CC[C@H]1CN2CCC1C[C@@H]2[C@@H](O)c1ccnc2ccc(OC)cc12 (stereo partly drawn) | > 4 mM (inactive) |
| O=C(Nc1ccc(F)cc1F)c1ccco1 | > 4 mM (inactive) |
| CCOC(=O)c1[nH]cnc1C(=O)OC(C)C | > 4 mM (inactive) |
| COc1ccc(-c2cc(=O)c3c(O)cc(O[C@@H]4O[C@H](CO[C@H]5O[C@H](C)[C@@H](O)[C@H](O)[C@@H]5O)[C@@H](O)[C@H](O)[C@H]4O)cc3o2)cc1O | > 4 mM (inactive) |
| O=C(O)c1ccccc1C(=O)Nc1ccccc1 | > 4 mM (inactive) |
| C=CCCCCCCCCCCCC(O)CC(O)COC(C)=O (stereo not drawn) (tested in a mixture with another compound) | > 4 mM (inactive) |
| CC(NC(=O)C1CCCCC1)C(=O)NC1=NCCS1 (stereo not drawn) | > 4 mM (inactive) |
| Fc1cccc(Cl)c1CN1CCCNCC1 | > 4 mM (inactive) |
| O=C(O)Cc1c[nH]c2ccccc12 | > 4 mM (inactive) |
| COC1CC(O[C@H]2CC[C@]3(C=O)C4CC[C@]5(C)C(C6=CC(=O)OC6)CC[C@]5(O)C4CC[C@]3(O)C2)OC(C)C1O (stereo partly drawn) | > 4 mM (inactive) |
| COc1ccc(-c2ccc(OC)cc2C(=O)O)cc1 | > 4 mM (inactive) |
| Oc1ccc2c(c1)OCC1(O)Cc3cc(O)c(O)cc3C21 (stereo not drawn) | > 4 mM (inactive) |
| CS(=O)(=O)c1ccc2nc(N)sc2c1 | > 4 mM (inactive) |
| OC12C=CC(CC1)CC2 | > 4 mM (inactive) |
| NC(c1ccccc1)c1ccccn1 (stereo not drawn) | > 4 mM (inactive) |
| Nc1nc(SCc2ccccc2)ns1 | > 4 mM (inactive) |
| CCOC(=O)CSCC(=O)Nc1nccs1 | > 4 mM (inactive) |
| O=C(c1cccc(-n2cnnn2)c1)N1CCOCC1 | > 4 mM (inactive) |
| NC(=O)CSc1ccc(-c2ccccc2)nn1 | > 4 mM (inactive) |
| NC(=O)C1CCN(CN2C(=O)c3ccccc3C2=O)CC1 | > 4 mM (inactive) |
| CCCS(=O)(=O)N1CCN(c2ccccn2)CC1 | > 4 mM (inactive) |

| SMILES | Kd |
| --- | --- |
| COC(=O)C1CSCC1=O (stereo not drawn) | > 4 mM (inactive) |
| COc1cc([C@@H]2c3cc4c(cc3[C@H](OC(C)=O)[C@H]3COC(=O)[C@@H]23)OCO4)cc(OC)c1OC | > 4 mM (inactive) |
| O=C1CCC(=O)N1c1cccc([N+](=O)[O-])c1 | > 4 mM (inactive) |
| Cc1nc2cc(NC(=O)Nc3nccs3)ccc2n1C | > 4 mM (inactive) |
| Cc1ccc(S(=O)(=O)CCc2ccccn2)cc1 | > 4 mM (inactive) |
| CCC(=O)NC(=S)Nc1ccc(C(N)=O)cc1 | > 4 mM (inactive) |
| COC(=O)C[C@@H]1C2(C)C(=O)[C@@H](CC3=C4CC(=O)O[C@@H](c5ccoc5)[C@]4(C)CCC32)[C@H](OC(C)=O)C1(C)C (stereo partly drawn) | > 4 mM (inactive) |
| CC(=O)Nc1cccc(NC(=O)c2ccco2)c1 | > 4 mM (inactive) |
| Cc1c(C(=O)OC(C)C)[nH]c2c1C(=O)CCC2 | > 4 mM (inactive) |
| CC(=O)c1c(C)nc(-c2ccc(Cl)cc2Cl)n1O | > 4 mM (inactive) |
| O=C(O)CCC(=O)Nc1nccs1 | > 4 mM (inactive) |
| Cc1cc(Cl)ccc1OC(C)C(=O)N1CCOCC1 (stereo not drawn) | inactive |
| CSc1nc2nc(C)cc(=O)n2[nH]1 | > 4 mM (inactive) |
| CCc1cc(=O)[nH]c(SCC(=O)NCCOC)n1 | > 4 mM (inactive) |
| CNc1nc(SC)nc(N2CCOCC2)n1 | > 4 mM (inactive) |
| Cc1cc(=O)c2ccccc2n1CC(N)=O | > 4 mM (inactive) |
| O=C1NC(=O)C(Cc2cccs2)C(=O)N1 | > 4 mM (inactive) |
| Cc1sc2nc(-c3ccco3)oc(=O)c2c1C | > 4 mM (inactive) |
| CC(=O)O[C@]1(C)CC[C@@]23CC1C(C)(C)[C@@H]2CC[C@H]3C | > 4 mM (inactive) |
| O=C1CSC(=O)N1CN1CCCC1 | > 4 mM (inactive) |
| Cc1cc([N+](=O)[O-])cc[n+]1[O-] | > 4 mM (inactive) |

| SMILES | Kd |
| --- | --- |
| NC(=O)CNC(=O)c1ccccc1 | > 4 mM (inactive) |
| Cc1ccc(CCC(N)=O)o1 | > 4 mM (inactive) |
| C=C(C)C1CC=C(CO)CC1 (stereo not drawn) | > 4 mM (inactive) |
| COc1cc2ccc(=O)oc2c2ccoc12 | > 4 mM (inactive) |
| NC(CSCSCC(N)C(=O)O)C(=O)O (stereo not drawn) | > 4 mM (inactive) |
| C=C(C)[C@@H]1[C@H]2OC(=O)[C@@H]1[C@]1(O)C[C@H]3O[C@]34C(=O)O[C@H]2[C@]14C | > 4 mM (inactive) |
| Cn1c(=O)c2c(n(C)c1=O)=NC1(CCCCC1)N=2 | > 4 mM (inactive) |
| CC(=O)Oc1cc2c(c(C)c1OC(C)=O)CC=C1[C@@]2(C)CC[C@@]2(C)C3C[C@](C)(C(=O)O)CC[C@]3(C)CC[C@]12C (stereo partly drawn) | > 4 mM (inactive) |
| CC(=O)Nc1c(Cl)cnn(-c2ccccc2)c1=O | > 4 mM (inactive) |
| Nc1nnc(SCc2ccc(F)cc2Cl)s1 | > 4 mM (inactive) |
| Cc1cc(N)no1 | > 4 mM (inactive) |
| COc1c2occc2c(OC)c2c(=O)cc(C)oc12 | > 4 mM (inactive) |
| O=C(O)[C@H](O)[C@@](O)(Cc1ccc(O)cc1)C(=O)O | > 4 mM (inactive) |
| COc1c(-c2coc3cc4c(cc3c2=O)CC(O)C(C)(C)O4)ccc2c1C=CC(C)(C)O2 (stereo not drawn) | > 4 mM (inactive) |
| O=C(c1ccc(Cl)c(F)c1F)N1CCCC1 | > 4 mM (inactive) |
| O=C1NC(=O)/C(=C\c2ccco2)S1 | > 4 mM (inactive) |
| O=S(=O)(N1CCCCC1)n1c(Cc2ccccc2)nc2ccccc21 | > 4 mM (inactive) |
| Cc1nc2c(=O)[nH]c3ccccc3c2o1 | > 4 mM (inactive) |
| Cc1ccc(C)n1/N=C1\NC(=O)CS1 | > 4 mM (inactive) |
| Nc1cccc(F)c1-c1ncon1 | > 4 mM (inactive) |
